SMILES strings stand for the structures.

For the assay, the system named is 2-AP-labeled miR-21-hp RNA (RNA, miRNA, 2-aminopurine at 15 (replaces A15)) GGGUUGACUGUUGAAUCUCAUGGCAACCC
The assay can be described thus: 2-aminopurine fluorescence titration. The conditions noted are these: 137 mM NaCl, 3 mM KCl; apparent; PBS pH 7.4, 10% DMSO, RT, 2 μM RNA.

As to `OC(CNc1ccccc1)Cn1c2ccc(Br)cc2c2cc(Br)ccc21` (stereo not shown), the Kd was 3.2 ± 0.7 µM.

The values are drawn from paper PMC6341489 (2016).
